Laboratory results reported in PubChem BioAssay AID248 (DTP/NCI, 2004).
Toxic doses and inconclusive results are not listed. Cut-off read from the data, not from the text of the source: active = T/C of 150% or more; inactive = T/C below 125%.

Tested on: L1210 leukemia ip in BDF1 mice, survival T/C
Experiment: NCI In Vivo Anticancer Drug Screen. Data for tumor model L1210 Leukemia (intraperitoneal) in B6D2F1 (BDF1) mice
Conditions: endpoint: mean survival time, higher = longer survival
Method in brief: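 Read-out is survival time, reported as the treated-group measurement over the vehicle-control measurement.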

[1] = dose: 100.0 mg/kg/injection, schedule: Q01DX009 (ip), vehicle: saline with Tween-80
[2] = dose: 200.0 mg/kg/injection, schedule: Q01DX009 (ip), vehicle: saline with Tween-80
[3] = dose: 100.0 mg/kg/injection, schedule: Q01DX009 (ip), vehicle: Klucel (hydroxypropylcellulose) (HPC)
[4] = dose: 100.0 mg/kg/injection, schedule: Q04DX003 (ip), vehicle: Klucel (hydroxypropylcellulose) (HPC)
[5] = dose: 200.0 mg/kg/injection, schedule: Q01DX009 (ip), vehicle: Klucel (hydroxypropylcellulose) (HPC)
[6] = dose: 200.0 mg/kg/injection, schedule: Q04DX003 (ip), vehicle: Klucel (hydroxypropylcellulose) (HPC)
[7] = dose: 400.0 mg/kg/injection, schedule: Q04DX003 (ip), vehicle: Klucel (hydroxypropylcellulose) (HPC)

Measured: T/C

CNC[C@@H](O)c1ccc(O)c(O)c1
inactive: dose: 0.1 mg/kg/injection, schedule: Q01DX009 (ip), vehicle: saline 94 % of control | dose: 0.2 mg/kg/injection, schedule: Q01DX001 (ip), vehicle: saline 112 % of control | dose: 0.2 mg/kg/injection, schedule: Q01DX009 (ip), vehicle: saline 109 % of control | dose: 0.31 mg/kg/injection, schedule: Q01DX009 (ip), vehicle: saline 111 % of control | dose: 0.4 mg/kg/injection, schedule: Q01DX001 (ip), vehicle: saline 106 % of control | dose: 0.4 mg/kg/injection, schedule: Q01DX009 (ip), vehicle: saline 102 % of control | dose: 0.4 mg/kg/injection, schedule: Q04DX003 (ip), vehicle: saline 108 % of control | dose: 0.59 mg/kg/injection, schedule: Q01DX009 (ip), vehicle: saline 95 % of control | dose: 0.62 mg/kg/injection, schedule: Q01DX009 (ip), vehicle: saline 98 % of control | dose: 0.8 mg/kg/injection, schedule: Q01DX001 (ip), vehicle: saline 104 % of control | dose: 0.8 mg/kg/injection, schedule: Q04DX003 (ip), vehicle: saline 113 % of control | dose: 0.9 mg/kg/injection, schedule: Q01DX009 (ip), vehicle: saline 97 % of control | dose: 1.1 mg/kg/injection, schedule: Q01DX001 (ip), vehicle: saline 96 % of control | dose: 1.25 mg/kg/injection, schedule: Q01DX009 (ip), vehicle: saline 101 % of control | dose: 1.3 mg/kg/injection, schedule: Q01DX009 (ip), vehicle: saline 97 % of control | dose: 1.6 mg/kg/injection, schedule: Q04DX003 (ip), vehicle: saline 98 % of control | dose: 2.3 mg/kg/injection, schedule: Q04DX003 (ip), vehicle: saline 103 % of control | dose: 2.5 mg/kg/injection, schedule: Q01DX009 (ip), vehicle: saline 102 % of control | dose: 3.6 mg/kg/injection, schedule: Q04DX003 (ip), vehicle: saline 109 % of control

O=C(O)c1[nH]c2c(=O)[nH]c(=O)[nH]c2c1Br
inactive: dose: 100.0 mg/kg/injection, schedule: Q01DX001 (ip), vehicle: saline 102 % of control | dose: 200.0 mg/kg/injection, schedule: Q01DX001 (ip), vehicle: saline 100 % of control | dose: 400.0 mg/kg/injection, schedule: Q01DX001 (ip), vehicle: saline 100 % of control

CN(N)C(=O)Nc1ccccc1
inactive: dose: 75.0 mg/kg/injection, schedule: Q01DX001 (ip), vehicle: carboxymethylcellulose (CMC) 100 % of control | dose: 150.0 mg/kg/injection, schedule: Q01DX001 (ip), vehicle: carboxymethylcellulose (CMC) 100 % of control

Cc1cc(C)c([I+]c2c(C)cc(C)cc2C)c(C)c1
inactive: dose: 0.12 mg/kg/injection, schedule: Q01DX009 (ip), vehicle: saline 102 % of control | dose: 0.25 mg/kg/injection, schedule: Q01DX009 (ip), vehicle: saline 111 % of control | dose: 0.5 mg/kg/injection, schedule: Q01DX001 (ip), vehicle: saline 90 % of control | dose: 0.5 mg/kg/injection, schedule: Q01DX009 (ip), vehicle: saline 122 % of control | dose: 0.5 mg/kg/injection, schedule: Q01DX015 (ip), vehicle: saline 100 % of control | dose: 0.5 mg/kg/injection, schedule: Q04DX003 (ip), vehicle: acetone 111 % of control | dose: 1.0 mg/kg/injection, schedule: Q01DX001 (ip), vehicle: saline 101 % of control | dose: 1.0 mg/kg/injection, schedule: Q01DX015 (ip), vehicle: saline 96 % of control | dose: 2.0 mg/kg/injection, schedule: Q01DX001 (ip), vehicle: saline 92 % of control | dose: 2.0 mg/kg/injection, schedule: Q01DX015 (ip), vehicle: saline 102 % of control | dose: 4.0 mg/kg/injection, schedule: Q01DX015 (ip), vehicle: saline 103 % of control

O=C(Nc1cccc(O)c1)Oc1ccccc1
inactive: [1] 98 % of control | [2] 90 % of control | dose: 400.0 mg/kg/injection, schedule: Q01DX009 (ip), vehicle: saline with Tween-80 89 % of control

CCc1ccc2c(c1)Nc1ccccc1S2
inactive: dose: 50.0 mg/kg/injection, schedule: Q01DX009 (ip), vehicle: Klucel (hydroxypropylcellulose) (HPC) 97 % of control | dose: 50.0 mg/kg/injection, schedule: Q04DX003 (ip), vehicle: Klucel (hydroxypropylcellulose) (HPC) 91 % of control | [3] 97 % of control | [4] 96 % of control | [5] 101 % of control | [6] 97 % of control | [7] 86 % of control

NC1C(O)C(O)C(Nc2ncnc3nc[nH]c23)OC1C(O)CO (stereo not given)
inactive: dose: 0.44 mg/kg/injection, schedule: Q## X000 (ip), vehicle: carboxymethylcellulose (CMC) 98 % of control | dose: 0.66 mg/kg/injection, schedule: Q## X000 (ip), vehicle: carboxymethylcellulose (CMC) 100 % of control | dose: 1.0 mg/kg/injection, schedule: Q## X000 (ip), vehicle: carboxymethylcellulose (CMC) 100 % of control | dose: 1.5 mg/kg/injection, schedule: Q01DX009 (ip), vehicle: saline 104 % of control | dose: 1.5 mg/kg/injection, schedule: Q## X000 (ip), vehicle: carboxymethylcellulose (CMC) 100 % of control | dose: 3.0 mg/kg/injection, schedule: Q01DX001 (ip), vehicle: saline 107 % of control | dose: 3.0 mg/kg/injection, schedule: Q01DX009 (ip), vehicle: saline 103 % of control | dose: 6.0 mg/kg/injection, schedule: Q01DX001 (ip), vehicle: saline 107 % of control | dose: 6.0 mg/kg/injection, schedule: Q01DX009 (ip), vehicle: saline 101 % of control | dose: 12.0 mg/kg/injection, schedule: Q01DX001 (ip), vehicle: saline 107 % of control | dose: 12.0 mg/kg/injection, schedule: Q01DX009 (ip), vehicle: saline 98 % of control | dose: 24.0 mg/kg/injection, schedule: Q01DX001 (ip), vehicle: saline 104 % of control | dose: 24.0 mg/kg/injection, schedule: Q01DX009 (ip), vehicle: saline 101 % of control | dose: 35.0 mg/kg/injection, schedule: Q01DX009 (ip), vehicle: saline 95 % of control | dose: 48.0 mg/kg/injection, schedule: Q01DX001 (ip), vehicle: saline 103 % of control | dose: 55.0 mg/kg/injection, schedule: Q01DX009 (ip), vehicle: saline 97 % of control | dose: 75.0 mg/kg/injection, schedule: Q01DX001 (ip), vehicle: saline 96 % of control | dose: 80.0 mg/kg/injection, schedule: Q01DX009 (ip), vehicle: saline 97 % of control | dose: 110.0 mg/kg/injection, schedule: Q01DX001 (ip), vehicle: saline 98 % of control | dose: 165.0 mg/kg/injection, schedule: Q01DX001 (ip), vehicle: saline 101 % of control | dose: 245.0 mg/kg/injection, schedule: Q01DX001 (ip), vehicle: saline 95 % of control | dose: 370.0 mg/kg/injection, schedule: Q01DX001 (ip), vehicle: saline 103 % of control

Cc1ccc2[nH]c(=O)oc(=O)c2c1
inactive: [1] 105 % of control | [2] 102 % of control

COc1ccc(C)cc1NC(=S)NC(=O)c1cc([N+](=O)[O-])cc([N+](=O)[O-])c1
inactive: [3] 97 % of control | [4] 95 % of control | [5] 90 % of control | [6] 100 % of control | dose: 400.0 mg/kg/injection, schedule: Q01DX009 (ip), vehicle: Klucel (hydroxypropylcellulose) (HPC) 95 % of control | [7] 97 % of control
